# Reference: US20170224711A1, “COMPOSITIONS AND METHODS FOR THE TREATMENT OF NEURODEGENERATIVE DISEASES” (University of Houston System, priority 2014, published 2017)
# Entries after “also recorded” stand apart in the source; their conditions may differ.
# What was measured:
# [1] = tested on: A2780 ovarian cancer cells; assay: Western blot protein expression; type: cell-based, human; conditions: for ATF3 protein expression compared to control / HPD protein expression compared to control / NMDAR2C protein expression compared to control / RAB27A protein expression compared to control / SLC39A3 (ZIP3) protein expression compared to control / SQSTM1 protein expression compared to control: 24 hrs treatment, Western blot
# Method: A2780 ovarian cancer cells cell line was cultured in 60 or 100 mm^3 cell culture dishes. Once the plated were 80% confluent, the cells were incubated in the presence and absence of either R,R-D2 or R,R-D4. After 24 hrs of drug treatment, proteins were extracted from the cells using 200-500 μl of either RIPA or MPER protein extraction reagent buffer or both. Halt protease inhibitor cocktail from Thermo Fisher was added to the protein extraction reagents. The protein concentration was measured using BCA kit from Promega. The freshly extracted proteins (40 to 50 μg) were run on a 4-12% or 4-20% tris-glycine gels, at 120 V for 2 to 3 hours after which the proteins were transferred onto nitrocellulose membranes for one hour. Then the blots were incubated in 5% milk. The following primary antibodies were incubated overnight in 5% milk. These antibodies include: mouse anti-rabbit IgG-FITC, mouse anti-goat IgG-PE, anti-mouse IgG2a-PE, SQSTM1 (D-3), Egr-2 (H-220), ZIP3 (D-14), TOX1 (T-12), ATF-3 (H-90), NMDAμ4 (C-20), HPPD (H-300), Fos B (C-20), PPT2 (C-18), Hep G2 Cell Lysate, TMEM106B (C-12), xCT (Q-18) after which the proteins were detected by species-specific HRP-conjugated secondary antibody using ECL chemiluminescence kit purchased from GE health care.
# To confirm that the modulation of the genes listed in Table 1, following treatment with RRD2 and RRD4 in the human ovarian cancer cell line, A2780, also affects the protein expression of these genes, some representative genes from Table 1 were assessed for their corresponding protein expression as measured by Western Blot using protein specific antibodies. The protein expressions for HPD, SQSTM1, ATF3, NMDAR2C were higher compared to the control samples while RAB27A and SLC39A3 (ZIP3) expressions were lower than the control samples following treatment with the aforementioned compounds (FIGS. 4A-4B). Note that HPD and NMDAR2C were calibrated against both actin and GADPH (FIG. 4C). As indicated in the Tables, overexpressed proteins/genes are implicated in protecting neurons from a variety of neurodegenerative diseases.
# [2] = tested on: Human Ovarian cancer cells, A2780; assay: CHIP array: whole genome expression (HumanHT-12 v4.0 BeadChip); type: cell-based; conditions: 12 or 24 hours, vs control or untreated cells; for Fold change expression of ATF / Fold change expression of NMDAR2C: direction ↑; for Fold change expression of RAB27A / Fold change expression of SLC39A3: direction ↓
# Method: Human Ovarian cancer cells, A2780, were treated with compound and different concentration for 12 or 24 hours. The total RNA from the treated human cells were extracted by Trizol (Invitrogen) and purified by Rneasy Mini kit (Qiagen, Valencia, Calif.). The concentration and integrity of all RNA samples were assessed using the NanoDrop ND-2000 spectrophotometer (NanoDrop Technologies, Wilmington, Del.) and the Bioanalyzer 2100 system (Agilent Technologies, Santa Clara, Calif.). 1 ug of total RNA from each sample were subjected to whole-genome gene expression analysis at the Microarray Core Facility of University of Texas Southwestern Medical Center (https://microarray.swmed.edu) using the HumanHT-12 v4.0 BeadChip (Illumina, San Diego, Calif.) according to the manufacturer's instructions. Microarray data were extracted using BeadStudio v3.1 software, background-subtracted, and normalized using a cubic spline algorithm. Genes differentially expressed between groups were identified using the Illumina custom error model implemented in BeadStudio. […] The pathways and interaction networks that the genes involved were further analyzed by Ingenuity Pathyway analysis software (www.ingenuity.com).
# The treatment of A2780, human ovarian cancer cell line at different concentrations were examined for the differential gene expression compared to the whole human genome and compared to untreated samples (controls). A representative heat map reflecting the fold change in expressions of genes modulated by RRD2 involved in neurodegenerative diseases is shown in FIG. 3. […] These genes are implicated in neurological disorders and neurodegenerative diseases and the modulation of these genes by Phosphaplatins is significant for providing neuroprotection.
# [3] = tested on: hippocampal slices, CA1 pyramidale layer; assay: Whole cell current-clamp recordings of action potentials in hippocampal slices; type: cell-based; conditions: rat hippocampal slices perfused with 20 μM, vs control, N=6
# Method: (§1) Sprague-Dawley male rats (P14-18) were deeply anesthetized with ether and after the decapitation, the brains were removed rapidly and laced in the fresh high sucrose dissection solution. After hippocampus isolation, hippocampal slices ([…]) were prepared using a Vibratome. The prepared slices were incubated in the artificial cerebrospinal fluid (ACSF) (pH 7.3) for half an hour. After incubating period, slices were transferred to recording chamber while oxygenated ACSF was continuously perfused constantly with the rate of 2 ml/min at 30° C. Borosilicate glass recording electrodes were filled with 0.9% NaCl (1-2 MΩ) and used for extracellular field potential recordings. Extracellular recordings were done from the border area between radiatum and pyramidale layers. Filled micropipettes (4-7 MΩ) containing intracellular solution were used for whole cell current-clamp recordings in the CA1 pyramidale layer. To elicit action potential activity, depolarizing square wave current pulses incremented by 20 pA were injected into the somas for 500-1000 ms, followed by 10 ms return to the baseline holding membrane potential (−80 mV). In addition, to square wave current pulses, slow depolarizing ramp-like current injections were used to quantify action potential threshold values. Neuronal membrane and field potential recordings were performed in control and in the RRD4 groups. RDD4 group brain slices were perfused with 20 μM RRD4. Zero magnesium model of inducing epileptiform activities was used in these experiments. In the treated group slices were incubated in 20 μM RRD4 for 15 minutes, and then were exposed to zero magnesium solution.
# The neurodegeneration observed in many diseases has been associated with a progressive decrease in neuronal activity and synaptic dismantling is associated with many neurodegenerative diseases. A potential strategy for preventing and/or halting neurodegenerative disease is by modulating intrinsic properties of individual neurons. Applicants observed that RRD4 pretreatment increased action potential threshold (FIG. 5). Action potential threshold was measured at the beginning of the sharp upward rise of the depolarizing phase of the action potential. (*P<0.05). Based on the data, RRD4 increases action potential (AP) threshold and decreases its amplitude. […] Further, pretreated slices with RRD4 had lower peak potential amplitude (FIG. 6). Mean values for the AP amplitude is voltage difference in 10-90% rise time in each action potential. (*P<0.05).
# hippocampal slices = assay: Zero magnesium model of epileptiform activity in hippocampal slices; type: cell-based, rat; conditions: slices incubated in 20 μM for 15 minutes, then zero magnesium solution, N=6
# Method: as §1, with “RDD4 group brain slices were perfused with 20 μM RRD4. Zero magnesium model of inducing epileptiform activities was used in these experiments. In the treated group slices were incubated in 20 μM RRD4 for 15 minutes, and then were exposed to zero magnesium solution.” left out
Structure (SMILES),"RAB27A protein expression vs untreated cells ([1]; 20 μM, FIG. 4A)",ATF3 protein expression compared to control [1],HPD protein expression compared to control [1],NMDAR2C protein expression compared to control [1],RAB27A protein expression compared to control [1],SLC39A3 (ZIP3) protein expression compared to control [1],SQSTM1 protein expression compared to control [1],Fold change expression of ATF [2],Fold change expression of NMDAR2C [2],Fold change expression of RAB27A [2],Fold change expression of SLC39A3 [2],"RAB27A protein expression vs untreated cells ([1]; 25 μM, FIG. 4A)","SQSTM protein expression vs untreated cells ([1]; 25 μM, FIG. 4A)",Action potential (AP) amplitude [3],Action potential (AP) threshold [3],Input resistance [3],Membrane depolarization in treated cells [3],"Time to seizure onset (seizure threshold, first seizure formation) (hippocampal slices)"
N[C@@H]1CCCC[C@H]1N.O=P([O-])(O)OP(=O)([O-])O.[Pt+2] [RRD2],overexpressed in untreated cells as compared to cells treated,higher,higher,higher,lower,lower,higher,10↑ fold,8↑ fold,1.7↓ fold,2↓ fold,–,–,–,–,–,–,–
NC1CCCCC1N.O=P1(O)OP(=O)(O)[O][Pt]([OH])([OH])[O]1 [RRD4],–,higher,higher,higher,lower,lower,higher,10↑ fold,8↑ fold,1.7↓ fold,2↓ fold,overexpressed in untreated cells as compared to cells treated,enhanced expression,lower; also recorded: decreased significantly,increased; also recorded: raised,no effect,significantly more depolarized,significant effect in delaying; also recorded: significantly delayed
